For assay [1], the target named is sn-1-specific diacylglycerol lipase ABHD11 (Mus musculus, UniProt Q8K4F5). Put plainly: Late stage assay provider results from the probe development effort to identify inhibitors of LYPLA1 and LYPLA2: Gel-based Activity-Based Protein Profiling (ABPP) IC50 for off-target ABHD11. [Related pubchem assays (depositor defined):AID2174, AID2202, AID2203, AID2233, AID504482, AID504498, AID504505, AID504507, AID504510, AID504520, AID504522, AID504892]. It counts as functional.
Chain of sn-1-specific diacylglycerol lipase ABHD11 (Q8K4F5 whole entry): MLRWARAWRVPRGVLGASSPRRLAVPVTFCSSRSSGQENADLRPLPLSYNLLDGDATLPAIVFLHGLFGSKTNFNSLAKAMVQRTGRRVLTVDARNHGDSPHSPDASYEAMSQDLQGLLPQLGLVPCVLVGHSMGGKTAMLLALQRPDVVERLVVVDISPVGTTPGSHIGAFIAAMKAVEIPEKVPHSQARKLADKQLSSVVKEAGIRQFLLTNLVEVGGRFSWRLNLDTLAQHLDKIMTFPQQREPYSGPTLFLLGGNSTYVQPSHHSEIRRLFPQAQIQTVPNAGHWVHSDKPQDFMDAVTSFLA

Assay [2] relates to A-375. Put plainly: proliferation inhibition in MITF-low A375 cells – cell-based, cherry-pick samples, set 2, counter-screen for MITF modulator project, dose response (AID 540335). It counts as functional. Particulars: Homo sapiens.
Assay [3] can be described thus: HEK-293T viability loss, compound-treated – cell-based, uHTS hits, cytotoxicity control for B/T-cell NF-kB inhibitor project, dose response (AID 489019).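 Further: IC50 reflects cytotoxicity as loss of cell viability.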 Type of assay: functional.
The target in assay [4] is T1, Microphthalmia-associated transcription factor (Homo sapiens, UniProt O75030).
T1 sequence (O75030 whole entry): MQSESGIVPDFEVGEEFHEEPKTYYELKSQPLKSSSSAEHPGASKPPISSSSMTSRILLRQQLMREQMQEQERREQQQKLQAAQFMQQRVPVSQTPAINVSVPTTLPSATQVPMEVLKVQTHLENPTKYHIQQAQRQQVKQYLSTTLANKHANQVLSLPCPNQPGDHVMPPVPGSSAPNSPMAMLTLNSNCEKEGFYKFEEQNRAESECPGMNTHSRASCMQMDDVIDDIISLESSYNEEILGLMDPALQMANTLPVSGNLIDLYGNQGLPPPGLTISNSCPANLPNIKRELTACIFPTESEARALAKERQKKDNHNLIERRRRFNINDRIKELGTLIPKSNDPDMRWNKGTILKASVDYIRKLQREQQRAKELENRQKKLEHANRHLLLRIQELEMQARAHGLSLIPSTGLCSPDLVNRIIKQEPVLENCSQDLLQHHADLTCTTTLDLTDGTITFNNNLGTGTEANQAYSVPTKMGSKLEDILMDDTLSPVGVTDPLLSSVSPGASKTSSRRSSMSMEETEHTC
Kind of assay: reducers of TRPM1 reporter luminescence, concentration series – cell-based, SK-MEL-5, cherry-picked, set 3, MITF inhibitor project, dose response (AID 493073).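 Further: SK-MEL-5 melanoma cells with luciferase driven by the MITF target TRPM1 promoter.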 It counts as functional.

A short description of assay [5]: toxicity toward HepG2 liver cells – cell-based, plate reader, cherry-pick, antagonist series, cytotoxicity control, dose response (AID 743416). It counts as functional.
Assay [6] can be described thus: blockade of melanocortin 4 receptor signaling – cell-based, plate reader, cherry pick, counter-screen for LGR2 antagonist project, dose response (AID 743444).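 Further: transfected HEK 293 cells stimulated with alpha-MSH peptide; potency of inhibitors of the alpha-MSH evoked signal.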 Type of assay: functional. A general note: A counterscreen serves to expose hits that act by an unwanted route or on another target.
Assay [7] is described as follows: COV362 cell viability loss – plate reader, dry powder, SA12, cytotoxicity control for PAX8 inhibitor project, dose response (AID 743144). Type of assay: functional, cell-based.
The nature of assay [8]: inhibitors acting on PAX2 in cells – cell-based, plate reader, dry powder samples, selectivity assay for PAX8 inhibitor project, dose response (AID 743048).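 Further: HEK293 cells carrying a WT1 promoter luciferase reporter driven by expressed Pax2; potency is for inhibition of Pax2 driven reporter signal.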 Type of assay: functional.
A short description of assay [9]: viability loss in HEK293 cells – cell-based, plate reader, cherry-picked samples, cytotoxicity control, dose response (AID 743446). Type of assay: functional.
Assay [10] can be described thus: PAX8-dependent cell viability loss – plate reader, dry powder, dose response (AID 743049). It counts as functional, cell-based.
Assay [11] is described as follows: COV434 cell viability loss – plate reader, dry powder, SA7, cytotoxicity control for PAX8 inhibitor project, dose response (AID 743145). Type of assay: functional, cell-based.
The test system of a further assay is Jurkat. Put plainly: blockers of NF-kB activation in T cells – Jurkat, luciferase reporter, luminescence, B- and T-cell, dose response (AID 489004).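 Further: NF-kB luciferase reporter Jurkat cells stimulated with PMA plus ionomycin.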 Type of assay: functional, cell-based. Particulars: Homo sapiens. A general note: A reporter such as luciferase makes a cellular process visible.
Another assay addresses Paired box protein Pax-8 (Homo sapiens, UniProt Q06710). Put plainly: PAX8 transcriptional activity inhibition in RMG-I – RMG-I cells, luciferase, cherry-pick, dose response (AID 687027).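 Further: luciferase reporter driven by Pax8 target thyroperoxidase promoter measured by SteadyGlo luminescence.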 Type of assay: functional, cell-based.
Assay [12] can be described thus: blockers of bursicon-stimulated LGR2 cAMP reporter – cell-based, HEK293, CRE-luciferase reporter, cherry pick, set 2, dose response (AID 743343).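 Further: transfected cells were stimulated with diluted bursicon conditioned medium after compound addition.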 It counts as functional.
Assay [13] can be described thus: OV-90 cell viability loss – plate reader, dry powder, SA8, PAX8 inhibitor project, dose response (AID 743149). Type of assay: functional, cell-based.
The nature of assay [14]: IGROV1 cell killing – plate reader, dry powder samples, PAX8 inhibitor project, dose response (AID 743043). Type of assay: functional, cell-based. As to conditions: IGROV-1.
A short description of assay [15]: PAX5 cellular inhibition readout – cell-based, plate reader, dry powder samples, selectivity assay for PAX8 inhibitor project, dose response (AID 743047).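 Further: HEK293 cells carrying a Pax5 driven CD19 promoter luciferase reporter; potency of inhibitors that lower reporter luminescence.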 It counts as functional.
The subject of assay [16] is A-375. Put plainly: MITF: Counter assay: A375 proliferation Measured in Cell-Based System Using Plate Reader - 2084-03_Inhibitor_Dose_DryPowder_Activity. [Related pubchem assays (depositor defined):AID488944]. Particulars: Homo sapiens. Type of assay: functional.
Assay [17] concerns the target T2, Heat shock factor protein 1 (Mus musculus, UniProt P38532).
T2 sequence (P38532 whole entry): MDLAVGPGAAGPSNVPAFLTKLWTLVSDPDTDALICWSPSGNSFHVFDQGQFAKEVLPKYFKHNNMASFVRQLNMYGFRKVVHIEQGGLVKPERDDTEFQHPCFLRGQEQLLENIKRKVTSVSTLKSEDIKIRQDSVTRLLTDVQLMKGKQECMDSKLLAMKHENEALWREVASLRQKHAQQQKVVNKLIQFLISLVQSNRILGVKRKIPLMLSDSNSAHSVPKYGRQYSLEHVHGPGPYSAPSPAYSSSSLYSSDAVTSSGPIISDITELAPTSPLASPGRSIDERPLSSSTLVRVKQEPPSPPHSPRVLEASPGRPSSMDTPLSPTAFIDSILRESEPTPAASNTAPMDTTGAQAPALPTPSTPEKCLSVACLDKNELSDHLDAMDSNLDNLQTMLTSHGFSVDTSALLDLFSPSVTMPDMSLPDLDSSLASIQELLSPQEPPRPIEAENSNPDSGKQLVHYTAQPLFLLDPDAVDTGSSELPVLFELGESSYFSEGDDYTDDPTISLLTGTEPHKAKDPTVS
Put plainly: decrease of HSF1-responsive luciferase luminescence – cell-based, NIH3T3, dose retest, confirmation (AID 2382).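 Further: NIH3T3 fibroblasts with HSF1-driven luciferase reporter stressed by proteasome inhibitor MG132; luminescence from HSF1-driven luciferase expression after 8 hours of MG132 stress.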 Type of assay: functional.

Activity calls are given as the source filed them. Bounds are passed on as bounds.

Chain of Paired box protein Pax-8 (Q06710 whole entry): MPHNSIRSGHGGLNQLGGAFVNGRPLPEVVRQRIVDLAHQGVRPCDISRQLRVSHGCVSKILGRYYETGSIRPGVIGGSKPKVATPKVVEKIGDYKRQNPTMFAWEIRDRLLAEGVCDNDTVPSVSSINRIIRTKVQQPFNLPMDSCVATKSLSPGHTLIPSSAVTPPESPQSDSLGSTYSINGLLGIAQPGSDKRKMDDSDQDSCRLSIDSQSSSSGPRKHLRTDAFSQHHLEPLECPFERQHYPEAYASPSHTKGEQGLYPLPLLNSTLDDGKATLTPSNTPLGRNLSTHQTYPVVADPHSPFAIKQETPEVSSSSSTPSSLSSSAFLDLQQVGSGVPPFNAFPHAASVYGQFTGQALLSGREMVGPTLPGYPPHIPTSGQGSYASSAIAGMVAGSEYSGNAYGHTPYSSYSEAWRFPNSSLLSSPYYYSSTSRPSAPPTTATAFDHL

For the molecule `CC(C)(C)C1CCN(C(=O)n2ncc(C(O)(c3ccccc3)c3ccccc3)n2)CC1`, in [1], the concentration for half-maximal inhibition (IC50) (usually the point on the concentration scale where inhibition reaches its midpoint) is 0.01 µM (active).
As to `O=C(/C=C/c1ccccc1)Nc1cccc(C(=O)O)c1`, the concentration at half-maximal activity (AC50) (usually the concentration at which the activity in the assay is half-maximal) in the assay on A-375 [2] is > 35 µM (active); in assay [4], 1.52 µM (active); in assay [5] it was > 52 µM (inactive); in [6], 0.592 µM (active); in [7], 77.2 µM (active); in assay [8] it was 2.07 µM (active). For the same molecule, the AC50 is > 52 µM (inactive) in [9]; 32.2 µM (active) in [10]; > 100 µM (inactive) in [11]; 4.06 µM (active) at Paired box protein Pax-8; 0.833 µM (active) in assay [12]; > 100 µM (inactive) in assay [13]. Moreover, the figures for the AC50 (in assay [14]; in [15]; in the assay on A-375 [16]) were 49 µM (active), 2.67 µM (active) and > 35 µM (active), respectively. In addition, the IC50 in assay [3] is > 80 µM (inactive); with Jurkat, 1.4 µM (active). Besides, the EC50 (commonly the concentration giving half of the maximal effect) in assay [17] is 1.73 µM (active).
